What all share (type): functional
For experiment [1], the system named is Rattus norvegicus. Kind of experiment: Antihyperlipidemic activity in high fat diet-induced hyperlipidemic Sprague-Dawley rat assessed as blood VLDL level at 250 mg/kg, po after 7 days (reference value: 27 +/- 0.3183 mg/dl).
The subject of experiment [2] is Rattus norvegicus. Kind of experiment: Antihyperlipidemic activity in high fat diet-induced hyperlipidemic Sprague-Dawley rat assessed as blood HDL level at 250 mg/kg, po after 7 days (reference value: 19 +/- 0.5774 mg/dl).
Experiment [3] concerns Rattus norvegicus. Kind of experiment: Antihyperlipidemic activity in high fat diet-induced hyperlipidemic Sprague-Dawley rat assessed as blood cholesterol level at 250 mg/kg, po after 7 days (reference value: 121.5 +/- 1.335 mg/dl).
Experiment [4] has as its system Rattus norvegicus. Put plainly: Antihyperglycemic activity in high fat diet-induced hyperglycemic Sprague-Dawley rat assessed as blood glucose level at 250 mg/kg, po after 7 days (reference value: 106.3 +/- 0.6666 mg/dl).
The subject of experiment [5] is Rattus norvegicus. Put plainly: Antihyperlipidemic activity in high fat diet-induced hyperlipidemic Sprague-Dawley rat assessed as blood LDL level at 250 mg/kg, po after 7 days (reference value: 75.5 +/- 1.24 mg/dl).
Experiment [6] concerns Rattus norvegicus. Kind of experiment: Antihyperlipidemic activity in high fat diet-induced hyperlipidemic Sprague-Dawley rat assessed as blood triglyceride level at 250 mg/kg, po after 7 days (reference value: 135 +/- 1.592 mg/dl).

Take `CC(=O)Nc1nc(-c2ccc(OC(C)(C)C(=O)O)cc2)cs1`: the Activity with Rattus norvegicus [1] amounted to 16.1 mg/dL; in the experiment on Rattus norvegicus [2], 32.67 mg/dL; in the experiment on Rattus norvegicus [3], 108.3 mg/dL; in the experiment with Rattus norvegicus [4] it was 81.5 mg/dL; in the experiment on Rattus norvegicus [5] it was 60.63 mg/dL; in the experiment on Rattus norvegicus [6], 80.5 mg/dL.

Consider `CC(C)(Oc1ccc(-c2csc(NC(=O)CCl)n2)cc1)C(=O)O`, for which the Activity with Rattus norvegicus [1] is 17.1 mg/dL; with Rattus norvegicus [2], 34.33 mg/dL; with Rattus norvegicus [3] it was 111.5 mg/dL; in the experiment with Rattus norvegicus [4] it was 72.33 mg/dL; in the experiment with Rattus norvegicus [5] it was 59.53 mg/dL; with Rattus norvegicus [6], 85.5 mg/dL.

On to `CC(C)(Oc1ccc(-c2csc(NC(=O)c3ccccc3)n2)cc1)C(=O)O`, for which the Activity with Rattus norvegicus [1] was determined as 15.47 mg/dL; in the experiment with Rattus norvegicus [2] it was 37 mg/dL; in the experiment with Rattus norvegicus [3] it was 96.5 mg/dL; in the experiment on Rattus norvegicus [4], 74.5 mg/dL; with Rattus norvegicus [5], 43.67 mg/dL; in the experiment with Rattus norvegicus [6], 85.5 mg/dL.

Take `CC(C)(Oc1ccc(-c2csc(NCC(=O)c3ccc(Cl)cc3)n2)cc1)C(=O)O`: the Activity was 16.23 mg/dL in the experiment on Rattus norvegicus [1]; 32.5 mg/dL in the experiment with Rattus norvegicus [2]; 108.3 mg/dL in the experiment on Rattus norvegicus [3]; 74.33 mg/dL in the experiment with Rattus norvegicus [4]; 61.18 mg/dL with Rattus norvegicus [5]; 77.33 mg/dL in the experiment on Rattus norvegicus [6].

Regarding `CC(C)(Oc1ccc(-c2csc(NC(=O)CC(=O)Cl)n2)cc1)C(=O)O`, the Activity in the experiment with Rattus norvegicus [1] came out at 16.53 mg/dL; in the experiment with Rattus norvegicus [2], 35.83 mg/dL; with Rattus norvegicus [3], 116.5 mg/dL; in the experiment with Rattus norvegicus [4], 66.67 mg/dL; in the experiment with Rattus norvegicus [5] it was 67.75 mg/dL; in the experiment on Rattus norvegicus [6] it was 81.17 mg/dL.

Turning to `CC(C)(Oc1ccc(-c2csc(NC(=O)C(=O)Cl)n2)cc1)C(=O)O`, the Activity in the experiment on Rattus norvegicus [1] stood at 15.47 mg/dL; in the experiment with Rattus norvegicus [2], 32.5 mg/dL; in the experiment on Rattus norvegicus [3] it was 96.5 mg/dL; with Rattus norvegicus [4], 75.17 mg/dL; with Rattus norvegicus [5] it was 49.35 mg/dL; in the experiment with Rattus norvegicus [6], 82.67 mg/dL.

`CC(C)OC(=O)C(C)(C)Oc1ccc(C(=O)c2ccc(Cl)cc2)cc1` [FENOFIBRATE]: the Activity in the experiment with Rattus norvegicus [1] amounted to 14.67 mg/dL; in the experiment with Rattus norvegicus [2], 33.5 mg/dL; in the experiment on Rattus norvegicus [3], 105.2 mg/dL; in the experiment on Rattus norvegicus [4] it was 70.5 mg/dL; with Rattus norvegicus [5] it was 55.33 mg/dL; in the experiment on Rattus norvegicus [6], 73.17 mg/dL.

The values above are taken from ChEMBL document CHEMBL1641475, “Synthesis, hypolipidemic and hypoglycemic activity of some novel 2-(4-(2-substituted aminothiazole-4-yl) phenoxy)-2-methyl propanoic acid derivatives” (2011).
